{"source": "patent US20100222294A1", "about": "“Formulations of ATP and Analogs of ATP” (priority 2009, published 2010)", "assay_type": "physicochemical", "description": "An aqueous solution containing the following components was made:\n10 mg/ml of adenosine 5′-triphosphate disodium salt (anhydrous) (18.15 mM)\n1 mg/ml of glycine (13.32 mM)\nSodium hydroxide (sufficient to adjust pH to 9.2-9.3)\nWater sufficient to result in the above concentrations of adenosine 5′-triphosphate disodium salt (anhydrous), glycine, and 36 mg/ml of Na2HPO4.7H2O.\nBelow (in Table 2) are shown the relative amounts of ADP in the solution aliquots at the various time points. The data shown are concentrations of ADP as a percentage of the concentrations of ATP in the solution aliquots. The pH of the 72 month time point sample was 8.8.", "note": "Where two headings read alike, the source gives them in different places."}
{"smiles": "Nc1ncnc2c1ncn2[C@@H]1O[C@H](COP(=O)([O-])OP(=O)([O-])OP(=O)(O)O)[C@@H](O)[C@H]1O.[Na+].[Na+]", "note": "[ATP, adenosine 5′-triphosphate disodium salt (anhydrous)]", "values": [{"measurement": "Relative amount of ADP ([ADP]/[ATP] × 100)", "setting": "0 months storage (immediately after making), 10 mg/ml ATP disodium, 1 mg/ml glycine, 36 mg/ml Na2HPO4.7H2O, pH 9.2-9.3", "result": 0.35, "unit": "%"}, {"measurement": "Relative amount of ADP ([ADP]/[ATP] × 100)", "setting": "1 month storage at about 4° C. to about 8° C., same solution", "result": 0.42, "unit": "%"}, {"measurement": "Relative amount of ADP ([ADP]/[ATP] × 100)", "setting": "3 months storage at about 4° C. to about 8° C., same solution", "result": 0.48, "unit": "%"}, {"measurement": "Relative amount of ADP ([ADP]/[ATP] × 100)", "setting": "6 months storage at about 4° C. to about 8° C., same solution", "result": 0.57, "unit": "%"}, {"measurement": "Relative amount of ADP ([ADP]/[ATP] × 100)", "setting": "12 months storage at about 4° C. to about 8° C., same solution", "result": 0.72, "unit": "%"}, {"measurement": "Relative amount of ADP ([ADP]/[ATP] × 100)", "setting": "24 months storage at about 4° C. to about 8° C., same solution", "result": 1.15, "unit": "%"}, {"measurement": "Relative amount of ADP ([ADP]/[ATP] × 100)", "setting": "36 months storage at about 4° C. to about 8° C., same solution", "result": 1.4, "unit": "%"}, {"measurement": "pH of the solution after storage", "setting": "72 month time point sample, initial pH 9.2-9.3", "result": 8.8}, {"measurement": "Relative amount of ADP ([ADP]/[ATP] × 100)", "setting": "72 months (6 years) storage at about 4° C. to about 8° C., same solution", "result": 2.9, "unit": "%"}, {"measurement": "Stability of alkaline solution of ATP (duration)", "setting": "alkaline solution", "result": "stable for at least six years"}, {"measurement": "Presence of other ATP degradation (hydrolysis) products (AMP and adenosine)", "setting": "all time points 0 to 72 months, about 4° C. to 8° C., HPLC", "result": "significant levels of neither were detectable at any of the time points"}]}
